Consider 1 compound from patent US20230114107A1, “COMBINATION ANTI-CANCER THERAPIES WITH INDUCERS OF IRON-DEPENDENT CELLULAR DISASSEMBLY” (Flagship Pioneering Innovations V, Inc., priority 2019, published 2023).

Each structure is given as a SMILES string.

In this assay the test system is NFKB reporter in THP1-Dual cells. Kind of assay: NFKB reporter activity in THP1-Dual monocytes co-cultured with treated A20 cells. The class given is cell-based, human. How it is done:
A20 B-cell leukemia cells were treated with either control (DMSO) or various doses of RSL3, for 24 hours prior to co-culture with THP1-Dual cells for an additional 24 hours. RSL3 was purchased from Selleckchem (Houston, Tex.) and dissolved in DMSO. Subsequently, the THP1 supernatants were assessed for NFKB or IRF reporter activity.
A20 cells were acquired from ATCC and THP1-Dual cells acquired from InvivoGen (San Diego, Calif.). Both cell types were cultured in 96-well plates for the duration of the assay. 50,000 A20 cells were plated 24 hours prior to dosing with RSL3, with a final DMSO concentration of 0.5%. 24 hours post-treatment, THP1-Dual cells (25,000 cells/well) were added to the A20 cells. 24 hours later, 30 μl of supernatant was mixed with either 200 μl QuantiBlue (InvivoGen, San Diego, Calif.) or 50 μl QuantiLuc and absorbance or luminescence was recorded on a Molecular Devices plate reader.
A20 lymphoma cells were treated with various doses (e.g. 0.002, 0.005, 0.014, 0.041, 0.123, 0.370, 1.111, 3.333 and 10 μM) of a GPX4 inhibitor (RSL3, ML162 or ML210) in the presence or absence of 1 μM Ferrostatin-1 for 24 hours. ML162 was purchased from Cayman Chemical Company Inc and resuspended in DMSO. ML210 was purchased from Sigma-Aldrich and resuspended in DMSO. A20 lymphoma cells were also treated with DMSO as a negative control. After treatment with DMSO or a GPX4 inhibitor for 24 hours, the A20 lymphoma cells were co-cultured with THP1-Dual cells for an additional 24 hours. Subsequently, the THP1 supernatant was assessed for NFKB reporter activity. A20 cells were acquired from ATCC and THP1-Dual cells were acquired from InvivoGen (San Diego, Calif.). Both cell types were cultured in 96-well plates for the duration of the assay.

Turning to `COC(=O)c1ccc([C@H]2c3[nH]c4ccccc4c3C[C@H](C(=O)OC)N2C(=O)CCl)cc1` [RSL3], the “NFKB signaling in THP1 monocytes” value (A20 cells treated 24 hours, co-culture 24 hours, vs DMSO, FIG. 6B) is listed as “elicited”. For the same compound, the “NFKB activity in THP1 cells, dose dependence” value (A20 lymphoma cells treated with GPX4 inhibitor, FIG. 10B, 11B, 12B) is recorded as “increased NFKB activity in THP1 cells in a dose dependent manner”.
